# Measured values from paper PMC8878452, “A Tale of Toxin Promiscuity: The Versatile Pharmacological Effects of Hcr 1b-2 Sea Anemone Peptide on Voltage-Gated Ion Channels” (Marine Drugs, 2022).
# “Also recorded” adds a separate entry of the source. Bridges are numbered along the chain shown (N, C = ends). Where no end group is shown, it is not given here.
# Tests used:
# rKv1.3 = assay: TEVC, Kv1.3 in Xenopus oocytes; type: cell-based, rat; conditions: 1 µM, ND96 pH 7.4, 18–22 °C, n ≥ 3
# Excerpt: (§1) For the expression of Kv channels (rKv1.1, rKv1.2, rKv1.3, rKv1.4, rK1.5, rKv1.6, hKv2.1, hKv3.1, rKv4.2, hKv7.1, hKv7.2/7.3, hKv7.4, KQT1 (from the roundworm Caenorhabditis elegans), hKv10.1 (hEAG1), hKv11.1 (hERG1), and Shaker, from Drosophila melanogaster), Nav channels (rNav1.1, rNav1.2, rNav1.3, rNav1.4, hNav1.5, mNav1.6, hNav1.7, hNav1.8, and BgNav (from the cockroach Blattella germanica), as well as the hβ1 and rβ1 subunits, and Cav channels (rCav3.1, hCav3.2, and rCav3.3) in Xenopus oocytes, the linearized plasmids were transcribed using the T7 or SP6 mMESSAGEmMACHINE transcription kit (Ambion, Austin, TX, USA). Mature female animals were purchased from Nasco (Fort Atkinson, WI, USA) and were housed in the Aquatic Facility (KU Leuven) in compliance with the regulations of the European Union (EU) concerning the welfare of laboratory animals as declared in Directive 2010/63/EU. The use of X. laevis oocytes was approved by the Animal Ethics Committee of the KU Leuven, with the license number P186/2019. […]
# (§2) Whole-cell currents of oocytes were recorded 1 to 3 days after RNA injection. […] The current–voltage relationships were determined by 50 ms step depolarizations between −90 and +65 mV using 5 or 10 mV increments. All electrophysiological data were analyzed following the procedures described by Peigneur et al., 2012 [20].
# (§3) All values were expressed as means ± SEM. […]
# rKv1.6 = assay: TEVC, Kv1.6 in Xenopus oocytes; type: cell-based, rat; conditions: 1 µM, n ≥ 3
# Excerpt: as §1, §2, §3
# hKv11.1 (hERG1) = assay: TEVC, hERG in Xenopus oocytes; type: cell-based, human
# Excerpt: (§4) For the expression of Kv channels (rKv1.1, rKv1.2, rKv1.3, rKv1.4, rK1.5, rKv1.6, hKv2.1, hKv3.1, rKv4.2, hKv7.1, hKv7.2/7.3, hKv7.4, KQT1 (from the roundworm Caenorhabditis elegans), hKv10.1 (hEAG1), hKv11.1 (hERG1), and Shaker, from Drosophila melanogaster), Nav channels (rNav1.1, rNav1.2, rNav1.3, rNav1.4, hNav1.5, mNav1.6, hNav1.7, hNav1.8, and BgNav (from the cockroach Blattella germanica), as well as the hβ1 and rβ1 subunits, and Cav channels (rCav3.1, hCav3.2, and rCav3.3) in Xenopus oocytes, the linearized plasmids were transcribed using the T7 or SP6 mMESSAGEmMACHINE transcription kit (Ambion, Austin, TX, USA). Mature female animals were purchased from Nasco (Fort Atkinson, WI, USA) and were housed in the Aquatic Facility (KU Leuven) in compliance with the regulations of the European Union (EU) concerning the welfare of laboratory animals as declared in Directive 2010/63/EU. The use of X. laevis oocytes was approved by the Animal Ethics Committee of the KU Leuven, with the license number P186/2019.
# (§5) Stage V–VI oocytes were collected from anesthetized female X. laevis frog as previously described, with the frogs anesthetized by placement in a 0.1% tricaine solution (amino benzoic acid ethyl ester; Merck, Kenilworth, NJ, USA). Oocyte microinjection was performed using a microinjector (Drummond Scientifc®, Broomall, PA, USA), with a programmed cRNA injection volume of 4–50 nL, depending on channel subtype. The oocytes were incubated in ND96 solution (96 mM NaCl; 2 mM KCl; 1.8 mM CaCl2; 2 mM MgCl2, and 5 mM HEPES, pH 7.4), supplemented with 50 mg/L of gentamicin sulfate.
# (§6) Electrophysiological measurements were performed at room temperature (18–22 °C) using the two-electrode voltage-clamp (TEVC) technique. Data were obtained using a GeneClamp 500 amplifier (Axon Instruments®, Burlingame, CA, USA) and Clampex9 software (Axon Instruments®, USA) was responsible for data acquisition and storage. Glass micropipettes were produced using glass capillaries (borosilicate WPI 1B120-6) and drawn in a WPI (World Precision Instruments®, Sarasota, FL, USA) manual stretcher. The bath and perfusion solutions were either the previously described ND96 (Nav and Kv channels) or calcium-free ND96 supplemented with 10 mM BaCl2 (Cav channels).
# Whole-cell currents of oocytes were recorded 1 to 3 days after RNA injection. The current and voltage electrodes were filled with 3 M KCl, and their resistance was adjusted from 1.0 to 2.5 MΩ. Currents were sampled at 20 kHz (Nav channels) and 10 kHz (Kv and Cav channels) and filtered using a four-pole Bessel low-pass Bessel filter at 1 kHz for sodium and […] for potassium and calcium, except for the hERG ion channel in which the currents were filtered at 1 kHz. Leak subtraction was performed using a P/4 protocol. Kv1.x currents were evoked by 500 ms depolarizations to 0 mV, followed by a 500 ms pulse to −50 mV from a holding potential of −90 mV. Kv2.1, Kv3.1, Kv4.2, Kv7.x, and KQT1 currents were elicited by 700 ms pulses to +20 mV from a holding potential of −90 mV. Current traces of the hERG1 channel were elicited by applying a +40 mV prepulse for 2 s, followed by a step of −120 mV for 2 s. […] The current–voltage relationships were determined by 50 ms step depolarizations between −90 and +65 mV using 5 or 10 mV increments. All electrophysiological data were analyzed following the procedures described by Peigneur et al., 2012 [20].
# as §3
# rNav1.2 = assay: TEVC, Nav1.2 in Xenopus oocytes; type: cell-based, rat
# Excerpt: as §4, §5, §6
# (§7) Whole-cell currents of oocytes were recorded 1 to 3 days after RNA injection. The current and voltage electrodes were filled with 3 M KCl, and their resistance was adjusted from 1.0 to 2.5 MΩ. Currents were sampled at 20 kHz (Nav channels) and 10 kHz (Kv and Cav channels) and filtered using a four-pole Bessel low-pass Bessel filter at 1 kHz for sodium and […] for potassium and calcium, except for the hERG ion channel in which the currents were filtered at 1 kHz. Leak subtraction was performed using a P/4 protocol. Kv1.x currents were evoked by 500 ms depolarizations to 0 mV, followed by a 500 ms pulse to −50 mV from a holding potential of −90 mV. Kv2.1, Kv3.1, Kv4.2, Kv7.x, and KQT1 currents were elicited by 700 ms pulses to +20 mV from a holding potential of −90 mV. Current traces of the hERG1 channel were elicited by applying a +40 mV prepulse for 2 s, followed by a step of −120 mV for 2 s. Current traces of hEAG1 were elicited by a 2 s depolarization to 0 mV from a holding potential of −90 mV. Sodium current traces were evoked by a 100 ms depolarization to 0 mV. For Cav channels, current traces were elicited by 700 ms depolarizations to −20 mV from a holding potential of −90 mV. The current–voltage relationships were determined by 50 ms step depolarizations between −90 and +65 mV using 5 or 10 mV increments. All electrophysiological data were analyzed following the procedures described by Peigneur et al., 2012 [20].
# (§8) All values were expressed as means ± SEM. Differences in ionic currents between the control and toxin conditions were compared by a one-way ANOVA, followed by Dunnett’s multiple comparisons test. Differences were considered statistically significant when […].
# hNav1.7 = assay: TEVC, Nav1.7 in Xenopus oocytes; type: cell-based, human
# Excerpt: as §4, §5, §6, §7, §8
# rCav3.1 = assay: TEVC, Cav3.1 in Xenopus oocytes; type: cell-based, rat
# Excerpt: as §4, §5, §6
# as §2, with “injection. The current and voltage electrodes were filled with 3 M KCl, and their resistance was adjusted from 1.0 to 2.5 MΩ.” for “injection.”
# as §3
# rCav3.3 = assay: TEVC, Cav3.3 in Xenopus oocytes; type: cell-based, rat
# Excerpt: as §4, §5, §6, §7, §8
# [1] = tested on: voltage-gated potassium (KV), sodium (NaV), and calcium (CaV) channels; assay: TEVC screening panel of 28 voltage-gated ion channels; type: cell-based; conditions: 1 µM; 28 channels screened
# Excerpt: as §1, §2, §3
# ASIC1a = conditions: cited from earlier work
# Excerpt: (§9) Hcr 1b-2, the major peptide, presents 41 residues and belongs to the class 1b of sea anemone toxins, with a molecular mass of 4518.9 Da (Uniprot accession number C0HL52).
# ASIC3 = conditions: cited from earlier work
# Excerpt: as §9
# tested animals = conditions: cited from earlier work
# Protocol: Recently, the Hcr 1b-2 sequence was determined, together with two other peptides, named Hcr1b-3 and Hcr1b-4, which share 97.6% and 78.0% of sequence identity, respectively (Figure 1).
# [2] = 1 µM, 100 ms depolarization to 0 mV, mean ± SEM, n ≥ 3
# [3] = 1 µM vs control (ND96 Ca2+ free)
sequence,measurement,setting,value
"GTPCKCHGYIGVYWFMLAGCPNGYGYNLSCPYFLGICCVKK (disulfide 4-37, 6-30, 20-38 (inferred)) [Hcr 1b-2]","effect on potassium current, Kv1.3",rKv1.3,inhibition
same,"activity (inhibition of current), Kv1.6","rKv1.6; 500 ms depolarization to 0 mV from −90 mV, mean ± SEM",31.5 ± 6.7%
same,"effect on potassium current, Kv1.6","rKv1.6; TEVC, ND96 pH 7.4, 18–22 °C",inhibition
same,"gating-modifier effect (voltage-current relationship), hERG",hKv11.1 (hERG1); 1 µM,stronger shift; also recorded: strong shift towards more positive potentials; also recorded: significantly shift the current-voltage relationship of hERG
same,"effect on potassium current, hERG","hKv11.1 (hERG1); 1 µM, TEVC, ND96 pH 7.4, 18–22 °C, n = 3",inhibition; also recorded: strong hERG modulator
same,"Vhalf activation, hERG (peak)","hKv11.1 (hERG1); 1 µM, peak current, control (ND96) −13.7 ± 0.5, mean ± SEM, n = 3",12.6 ± 0.4 mV
same,"Vhalf activation, hERG (tail)","hKv11.1 (hERG1); 1 µM, tail current, control (ND96) −22.9 ± 0.6, mean ± SEM, n = 3",0.6 ± 0.7 mV
same,inhibition at 1 µM,"hKv11.1 (hERG1); human, Xenopus laevis oocytes expressing hKv11.1 (hERG1), pH 7.4, +40 mV prepulse 2 s, then −120 mV 2 s, mean ± SEM, n = 3, read-out: activity (inhibition of current), hERG",51.7 ± 7.6%
same,"effect on activation or inactivation, Nav1.2",rNav1.2; 1 µM,no significant effect
same,"Shift in Vhalf activation, Nav1.2",rNav1.2; 1 µM vs control (ND96),3.7 mV
same,"Shift in Vhalf inactivation, Nav1.2",rNav1.2; 1 µM vs control (ND96),−1.1 mV
same,"reduction of peak amplitude (INa), Nav1.2",rNav1.2; [2],52.8 ± 7.9%
same,"Vhalf activation, Nav1.2","rNav1.2; 1 µM, control (ND96) −19.2 ± 0.1, mean ± SEM, n ≥ 3",−15.5 ± 0.2 mV
same,"Vhalf inactivation, Nav1.2","rNav1.2; 1 µM, control (ND96) −33.6 ± 0.4, mean ± SEM, n ≥ 3",−34.7 ± 0.6 mV
same,"effect on activation or inactivation, Nav1.7",hNav1.7; 1 µM,no significant effect
same,"Shift in Vhalf activation, Nav1.7",hNav1.7; 1 µM vs control (ND96),−2.8 mV
same,"Shift in Vhalf inactivation, Nav1.7",hNav1.7; 1 µM vs control (ND96),−0.5 mV
same,"reduction of peak amplitude (INa) / inhibition, Nav1.7",hNav1.7; [2],38.7 ± 1.8%
same,"Vhalf activation, Nav1.7","hNav1.7; 1 µM, control (ND96) −26.9 ± 0.1, mean ± SEM, n ≥ 3",−29.7 ± 0.1 mV
same,"Vhalf inactivation, Nav1.7","hNav1.7; 1 µM, control (ND96) −38.1 ± 0.3, mean ± SEM, n ≥ 3",−38.6 ± 0.4 mV
same,"Shift in Vhalf activation, Cav3.1",rCav3.1; [3],−0.2 mV
same,"Shift in Vhalf inactivation, Cav3.1",rCav3.1; [3],−2.3 mV
same,"Vhalf activation, Cav3.1","rCav3.1; 1 µM, control (ND96 Ca2+ free) −41.0 ± 0.1, mean ± SEM, n ≥ 3",−41.2 ± 0.1 mV
same,"Vhalf inactivation, Cav3.1","rCav3.1; 1 µM, control (ND96 Ca2+ free) −58.4 ± 0.2, mean ± SEM, n ≥ 3",−60.7 ± 0.2 mV
same,"Shift in Vhalf activation, Cav3.3",rCav3.3; [3],−2.2 mV
same,"Shift in Vhalf inactivation, Cav3.3",rCav3.3; [3],−2.1 mV
same,higher activity on Cav3.3 than on Cav3.1,"rCav3.3; 1 µM, Cav3.3 vs Cav3.1",9 fold
same,higher activity on Cav3.3 than on Cav3.2,"rCav3.3; 1 µM, Cav3.3 vs Cav3.2",1.6 fold
same,"inhibition, Cav3.3","rCav3.3; 1 µM, calcium-free ND96 + 10 mM BaCl2, 700 ms depolarization to −20 mV from −90 mV, mean ± SEM, n ≥ 3",58.9 ± 9.4%
same,"Vhalf activation, Cav3.3","rCav3.3; 1 µM, control (ND96 Ca2+ free) −41.7 ± 0.4, mean ± SEM, n ≥ 3",−43.9 ± 0.5 mV
same,"Vhalf inactivation, Cav3.3","rCav3.3; 1 µM, control (ND96 Ca2+ free) −47.6 ± 0.2, mean ± SEM, n ≥ 3",−49.7 ± 0.3 mV
same,"number of targets acted on, of 28 screened ion channels",[1],26 targets
same,IC50,ASIC1a,4.8 ± 0.3 µM
same,IC50,ASIC3,15.9 ± 1.1 µM
same,signs of neurotoxicity or changes in behavior,tested animals,None of these three peptides showed signs of neurotoxicity or changes in the behavior
